Source: patent US20100197584A1, “USE OF CURCUMIN TO BLOCK BRAIN TUMOR FORMATION IN MICE” (Research Foundations of the City University of- New York, priority 2007, published 2010)

Columns and labels:
[1] = test system: B16F10 mouse melanoma cells; test: Brain tumor formation (B16F10 cells injected into right front brain), tail vein curcumin; format: in vivo, C57BL mouse
Protocol: Generation of Tumors. The mice were given food and water ad libitum and subjected to 12 hour dark/12 hour light cycles. To generate brain tumors in mice, B16F10 mouse melanoma cells or GL261 mouse glioma cells (1000 cells in 5 μl PBS per C57BL mouse) were injected into the right front brain [coordinates: with respect to the Bregma (in mm) AP=2.5; L=−1.1; D=1.5] at the rate of 1 μl per minute using a stereotaxic set-up (KDS Model 310plus infusion-withdrawal syringe pump) (Paxinos, G., and Franklin, K. B. J., The mouse brain in stereotaxic coordinates. 2nd ed. 2001, New York: Academic Press). Before the cell injection, the mouse was anesthetized by injecting (sc) xylazine (10 mg/Kg) and ketamine (100 mg/Kg), the head was shaved, and then the head was immobilized on a Stoelting sterotaxic frame. The mouse was determined to be in deep anesthesia by checking for regular, relaxed respiration and the lack of response to tail/toe pinch before its head was immobilized. The head was cleaned with 70% ethanol and then, using a sterile scalpel, a midline incision was made and subcutaneous muscle and fascia retracted to expose the skull. A hole was made in the skull with a dental drill and the cells injected as described above using a Hamilton syringe fitted to the syringe pump. Under the described condition of anesthesia, the mouse remains unconscious for about 90 min. The total time taken for immobilization of the mouse, exposure of the skull, and injection was about 30 min. Thus, the total time required from the injection of anesthetics to the completion of surgery was less than one hour. After the injection, the hole in the skull was sealed with sterile bone wax and the skin and muscle placed back in place with appropriate 7-mm stainless steel clips (Reflex Skin closure system; Cellpoint Scientific). For wound healing, a topical antibiotic (Triple Antibiotic, containing Polymyxin B, Bacitracin, and Neomycin) was applied and for post-operative care the animal was kept in a warm blanket at 35-37° C. taking precautions to avoid thermal injury. On the first day after surgery (day 2), a sterile, 37° C. solution of physiologic saline was administered (IP) at the dose of 1 ml/100 g body weight. The animals were then caged individually with access to food and water and kept under close monitoring. The mice also received acetaminophen (Tylenol syrup) 1 mg/ml in drinking water daily until they returned to complete normalcy in terms of both behavior and appearance (body weight; reduced locomotion, vocalization, lack of grooming, wound scratching; and signs inflammation at the surgical site).
Curcumin Treatment. The control mice received, aseptically, the carrier (3% DMSO in 200 μl PBS) daily from the next day (day 2), through the tail vein after placing the mouse in a restraining cage without anesthetics. Other mice similarly received 667 μM curcumin in 200 μl of PBS containing 3% DMSO daily from the next day (day 2) for 18 days (through day 19) through the tail vein. Other mice received the same curcumin solution daily from day 4, day 6, day 8 or day 10. One mouse (designated Mouse 2) received a single dose of curcumin (5 μl of 667 μM solution) five minutes after injection of B16F10 cells into the brain, using the same stereotaxic set-up.
Monitoring and Sample Preparation. The effects of brain tumor on movement generally appeared in about two to three weeks. The mice were monitored for disorders in movement using an open field VIDEO monitoring set up (10 min per mouse). Blood was collected from the saphenous vein to test for markers for cancer and cell and organ damage. Additionally, MRI was performed on the mice to monitor the growth and progression of brain tumors. […]

human glioma cells = human glioma cells in vitro (Karmakar 2006; Dhandapani 2007); cited from earlier work
[2] = test system: HOG (human oligodendroglioma) cells; test: Cell viability assay using MTT, HOG; format: cell-based; settings: 25 μM and 50 μM, 48 h or 96 h, versus control cells (FIG. 6e)
Protocol: (§1) Cells. B16F10 (mouse melanoma), GL261 (mouse glioma), HOG (human oligodendroglioma), A549 (human lung cancer), and N18 (mouse neuroblastoma) cells were cultured separately in DMEM containing 10% (v/v) fetal bovine serum and 1% (v/v) penicillin-streptomycin (PS) and allowed to grow to 40% confluence in a 96-well plate.
(§2) Curcumin Treatment. Two hours before drug treatment, the medium in each well was replaced with 200 μl Neurobasal medium supplemented with 2% (v/v) B27 and 1% (v/v) PS (Drug-treatment Medium). A stock solution (40 mM) of curcumin was prepared in sterile dimethyl sulfoxide (DMSO) (Example 1). Through serial dilution of each stock solution in Drug-treatment Medium, the following concentrations were obtained: 20 μM and 50 μM (for caspase 3/7 assays) or 25 μM and 50 μM (for MTT assays). […] Additionally, the background absorbance was determined from parallel wells containing only the Drug-treatment Medium plus a particular concentration of the drug (no cells).
(§3) Cell Viability Assay Using MTT (3-(4,5-Dimethylthiazolyl-2)-2,5-Diphenyltetrazolium Bromide). […] Absorbance was measured at 570 nm using a 96-well multi scanner auto-reader with the extraction buffer used as blank. For curcumin samples, the absorbance obtained from the corresponding curcumin plus medium samples was subtracted.

[3] = cited from earlier work
[4] = test system: human pancreatic carcinoma cell lines; settings: human pancreatic carcinoma cell lines (Li et al. 2004); cited from earlier work
[5] = test system: GL261 (mouse glioma) cells; test: Cell viability assay using MTT, GL261; format: cell-based; settings: 25 μM and 50 μM, 48 h or 96 h, versus control cells (FIG. 6b)
Protocol: as §1, §2, §3

[6] = test system: N18 (mouse neuroblastoma) cells; test: Cell viability assay using MTT, N18; format: cell-based; settings: 25 μM and 50 μM, 48 h or 96 h, versus control cells (FIG. 6c)
Protocol: as §1, §2, §3

COc1cc(/C=C/C(=O)CC(=O)/C=C/c2ccc(O)c(OC)c2)ccc1O [curcumin]
brain tumor formation and morbidity ([1]; B16F10 cells in right frontal lobe, 200 μl of 667 μM curcumin daily, tail vein, day 2 to day 19): blocked | tissue disintegration (hematoxylin and eosin staining of brain tissue) ([1]; curcumin-injected mice (FIG. 8B)): completely blocked | movement ([1]; daily curcumin injections, day 20): normal movement | movement and behavior ([1]; daily curcumin injections, days 21, 28, and 39): normal movement and behavior | tumors in the right frontal lobe ([1]; single dose (5 μl of 667 μM, into brain five minutes after B16F10 cells; Mouse 2)): Large tumors were observed | condition of mouse ([1]; single dose (5 μl of 667 μM, into brain five minutes after B16F10 cells; Mouse 2), day 21): hunched up and morbid | apoptosis (human glioma cells): triggers apoptosis | cell viability (MTT) [2]: dramatic decrease | solubility in water [3]: very low | apoptosis [4]: induces apoptosis | cell viability (MTT) [5]: dramatic decrease | cell viability (MTT) [6]: dramatic decrease
